From patent publication US12115163B2, “Combination therapy comprising a MAT2A inhibitor and a type II PRMT inhibitor” (IDEAYA BIOSCIENCES, INC., priority 2021, dated 2024)
Entries after “also recorded” stand apart in the source; their conditions may differ.

Experiments:
Type in all cases: in vivo, mouse
[1] = tested on: HCT-116 MTAP-deleted tumors; assay: Efficacy of Compound A and Compound B in HCT-116 MTAP-deleted xenografts (Example 5); conditions: for TGI (%) / Final TV (mean): Day 21; for Final TV (mean): initial TV 224
Method: (§1) The effect of Compound A and Compound B (HCl salt was used) as single-agent anti-tumor agents and in combination was assessed in the HCT-116 human colon tumor cell line, MTAP isogenic pair (MTAP proficient (WT) or MTAP-deleted). Cells were expanded in DMEM/F12 GlutaMAX (Fisher Scientific, Catalog Number 10-565-018) with 10% fetal bovine serum. These cells were free of mycoplasma and authenticated as HCT-116 by STR profiling. Two and a half million cells in log growth phase were resuspended in Hanks Balanced Salt Solution containing 50% Matrigel and implanted subcutaneously into the flank of each recipient female nu/nu mouse. Mice were housed in microisolator cages with corn cob bedding with additional enrichment consisting of sterile nesting material (Innovive) and Bio-huts (Bio-Serv). Water (Innovive) and diet (Teklad Global 19% Protein Extruded Diet 2919, Irradiated) were provided ad libitum. The environment was maintained on a 12-hour light cycle at approximately 68-72° F. and 40-60% relative humidity.
(§2) Tumor Volume (TV) was calculated using the following formula: TV (mm^3)=(width×width×length)/2. No dose holidays were provided for during the study and all mice were euthanized following the final dose on Day 21 (MTAP-deleted) or Day 15 (MTAP WT). Tumor growth inhibition (TGI) was calculated by [(TV controlfinal−TV treatedfinal)/(TV controlfinal−TV controlinitial)×100]. A TGI greater than 100% indicates tumor regressions. TV was analyzed for statistical significance utilizing GraphPad Prism version 9.1.0. Repeated Measures 2-Way ANOVA with Tukey's Multiple Comparisons was utilized, and P-values were presented from the final tumor measurement and were considered statistically significant if less than 0.05.
(§3) Mean tumor volume at dosing start was approximately 224 mm^3, with seven mice randomized to each treatment group. In the HCT-116 MTAP-deleted tumor model, mice were dosed orally, twice per day (BID) with Vehicle, once per day (QD) with Compound A at 1 or 3 mg/kg, or BID with Compound B at 3, 10, or 30 mg/kg, or Compound A combined with Compound B at each dose level. In the HCT-116 WT tumor model, mice were dosed orally, with BID Vehicle, QD with Compound A at 3 mg/kg, or BID with Compound B at 10 or 30 mg/kg, or Compound A combined with Compound B. The Vehicle was 0.5% 400 cps methylcellulose with 0.5% Tween-80 in sterile water.

HCT-116 MTAP WT tumors = assay: Efficacy of Compound A and Compound B in HCT-116 MTAP WT xenografts (Example 5); conditions: for TGI (%) / Final TV (mean): Day 15; for Final TV (mean): initial TV 228
Method: as §1, §2, §3

[2] = tested on: NCI-H838 MTAP-deleted xenografts; assay: Efficacy of Compound A and Compound B in NCI-H838 NSCLC xenograft (Example 6); conditions: for TGI (%): Study Day 25; for Final TV (mean): initial TV 140
Method: (§4) The effect of Compound A and Compound B (HCl salt was used) as single-agent anti-tumor agents and in combination was assessed in the NCI-H838 human NSCLC tumor cell line, an endogenously MTAP-deleted cell line. Cells were expanded in RPMI with 10% fetal bovine serum. These cells were free of mycoplasma and authenticated by STR profiling. Ten million cells in log growth phase were resuspended in RPMI-1640 containing 50% Matrigel and implanted subcutaneously into the flank of each recipient female BALB/c nude mouse. The mice were be kept in laminar flow rooms at constant temperature and humidity with 3-5 mice in each cage. Animals were housed in polycarbonate cages maintained at a temperature of 23±3° C. and a relative humidity of 40% to 70%. The bedding material was soft wood, which was changed once per week. Water and diet were provided ad libitum.
as §2, with “the study.” for “the study and all mice were euthanized following the final dose on Day 21 (MTAP-deleted) or Day 15 (MTAP WT).”, “the Study Day 25” for “the final”
(§5) Mean tumor volume at dosing start was approximately 140 mm^3, with ten mice randomized to each treatment group, with the study consisting of eight treatment groups. Mice were dosed orally, twice per day (BID) with Vehicle, once per day (QD) with Compound A at 3 mg/kg, or BID with Compound B at 1, 10, or 30 mg/kg, or Compound A combined with Compound B at each dose level. The Vehicle was 0.5% 400 cps methylcellulose with 0.5% Tween-80 in sterile water.

[3] = tested on: LU99 MTAP-deleted xenografts; assay: Efficacy of Compound A and Compound B in LU99 NSCLC xenograft (Example 7); conditions: for TGI (%) / Final TV (mean): Study Day 21
Method: as §4, with “JCRB LU99” for “NCI-H838”
as §2, with “study.” for “study and all mice were euthanized following the final dose on Day 21 (MTAP-deleted) or Day 15 (MTAP WT).”, “measurement on Study Day 21” for “measurement”
as §5, with “141” for “140”

[4] = HCT-116 MTAP WT model, over the dose levels tested

SMILES: Cn1ncc(-c2ccc3c(=O)[nH]nc(CN)c3c2)c1-c1c(F)cc2ccccc2c1C#N (atropisomer, axis not shown) [Compound B]
- TGI (%) ([1]; Compound B 3 mg/kg BID orally): 29%
- Final TV (mean) ([1]; Compound B 3 mg/kg BID orally): 1015 mm^3
- TGI (%) ([1]; Compound B 10 mg/kg BID orally): 49%
- Final TV (mean) ([1]; Compound B 10 mg/kg BID orally): 794 mm^3
- TGI (%) ([1]; Compound B 30 mg/kg BID orally): 83%
- Final TV (mean) ([1]; Compound B 30 mg/kg BID orally): 420 mm^3
- anti-tumor activity (in words) (HCT-116 MTAP WT tumors; Compound B 10 mg/kg BID): significantly enhanced tumor growth
- TGI (%) (HCT-116 MTAP WT tumors; Compound B 10 mg/kg BID orally): −52%
- Final TV (mean) (HCT-116 MTAP WT tumors; Compound B 10 mg/kg BID orally): 1596 mm^3
- TGI (%) (HCT-116 MTAP WT tumors; Compound B 30 mg/kg BID orally): −27%
- Final TV (mean) (HCT-116 MTAP WT tumors; Compound B 30 mg/kg BID orally): 1372 mm^3
- anti-tumor activity (in words) (HCT-116 MTAP WT tumors; [4]): no single agent activity
- TGI (%) ([2]; Compound B 1 mg/kg BID orally): 53%
- Final TV (mean) ([2]; Compound B 1 mg/kg BID orally): 899 mm^3
- TGI (%) ([2]; Compound B 10 mg/kg BID orally): 56%
- Final TV (mean) ([2]; Compound B 10 mg/kg BID orally): 839 mm^3
- TGI (%) ([2]; Compound B 30 mg/kg BID orally): 67%
- Final TV (mean) ([2]; Compound B 30 mg/kg BID orally): 666 mm^3
- TGI (%) ([3]; Compound B 1 mg/kg BID orally): 23%
- Final TV (mean) ([3]; Compound B 1 mg/kg BID orally, initial TV 142): 1765 mm^3
- TGI (%) ([3]; Compound B 10 mg/kg BID orally): 74%
- Final TV (mean) ([3]; Compound B 10 mg/kg BID orally, initial TV 142): 683 mm^3
- TGI (%) ([3]; Compound B 30 mg/kg BID orally): 90%
- Final TV (mean) ([3]; Compound B 30 mg/kg BID orally, initial TV 141): 353 mm^3

SMILES: Nc1nc(=O)n(-c2ccccc2Cl)c2nc(C(F)(F)F)ccc12 [Compound A]
- TGI (%) ([1]; Compound A 1 mg/kg QD orally): 64%
- Final TV (mean) ([1]; Compound A 1 mg/kg QD orally): 632 mm^3
- TGI (%) ([1]; Compound A 3 mg/kg QD orally): 80%
- Final TV (mean) ([1]; Compound A 3 mg/kg QD orally): 450 mm^3
- anti-tumor activity (in words) ([1]; HCT-116 MTAP-deleted model, over the dose levels tested): statistically significant anti-tumor activity
- TGI (%) (HCT-116 MTAP WT tumors; Compound A 3 mg/kg QD orally): −9%
- Final TV (mean) (HCT-116 MTAP WT tumors; Compound A 3 mg/kg QD orally): 1211 mm^3
- anti-tumor activity (in words) (HCT-116 MTAP WT tumors; [4]): no tumor growth inhibition; also recorded: no single agent activity
- TGI (%) ([2]; Compound A 3 mg/kg QD orally): 79%
- Final TV (mean) ([2]; Compound A 3 mg/kg QD orally): 478 mm^3
- anti-tumor activity (in words) ([2]; NCI-H838 model, over the dose levels tested): statistically significant anti-tumor activity
- TGI (%) ([3]; Compound A 3 mg/kg QD orally): 43%
- Final TV (mean) ([3]; Compound A 3 mg/kg QD orally, initial TV 142): 1341 mm^3
- anti-tumor activity (in words) ([3]; LU99 model, over the dose levels tested): statistically significant anti-tumor activity
